Data from ChEMBL document CHEMBL5331055, “Current medicinal chemistry strategies in the discovery of novel HIV-1 ribonuclease H inhibitors” (Eur J Med Chem, 2022).
Values belong to the molecule of their own block, whether it stands above or below them.

Key:
[1] = biological target: T1, Human immunodeficiency virus type 1 reverse transcriptase (Human immunodeficiency virus 1, UniProt Q72547); assay: Inhibition of HIV-1 reverse transcriptase associated RNase H activity
[2] = biological target: T1, Human immunodeficiency virus type 1 reverse transcriptase; assay: Non-competitive inhibition of HIV reverse transcriptase polymerase activity
[3] = biological target: T1, Human immunodeficiency virus type 1 reverse transcriptase; assay: Inhibition of HIV-1 RNase H
[4] = system: Human immunodeficiency virus 1; assay: Antiviral activity against wild type HIV-1 infected in human MT4 cells assessed as inhibition of virus-induced cytopathic effect measured by MTT assay; type: functional, organism-based; details: Human immunodeficiency virus 1, MT4
[5] = biological target: T2, Human immunodeficiency virus type 1 integrase (Human immunodeficiency virus 1, UniProt Q7ZJM1); assay: Inhibition of HIV-1 integrase strand transfer activity
T2 sequence (Q7ZJM1 whole entry): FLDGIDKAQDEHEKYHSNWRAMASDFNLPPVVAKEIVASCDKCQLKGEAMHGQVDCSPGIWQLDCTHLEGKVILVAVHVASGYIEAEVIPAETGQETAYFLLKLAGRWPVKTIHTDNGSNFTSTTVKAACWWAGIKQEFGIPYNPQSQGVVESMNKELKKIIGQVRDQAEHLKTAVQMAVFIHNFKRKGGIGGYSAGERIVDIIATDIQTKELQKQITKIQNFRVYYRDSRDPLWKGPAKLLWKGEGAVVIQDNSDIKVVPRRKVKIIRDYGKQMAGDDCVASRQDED

[6] = Inhibition of HIV-1 reverse transcriptase associated RNA dependent DNA polymerase activity incubated for 30 mins by multilabel counter plate reader method; set-up: species or system Human immunodeficiency virus 1
[7] = Cytotoxicity against human MT4 cells assessed as reduction in cell viability by MTT assay; type: toxicity, cell-based
[8] = biological target: T1, Human immunodeficiency virus type 1 reverse transcriptase; assay: Inhibition of wild type HIV-1 reverse transcriptase associated DNA polymerase independent RNase H activity using 5-GTTTTCTTTTCCCCCCTGAC-3 Fluorescein/5CAAAAGAAAAGGGGGGACUG-3-Dabcyl RNA/DNA template-primer as substrate by multilabel counter plate reader method
[9] = Inhibition of wild type HIV-1 RNA dependent DNA polymerase activity incubated for 30 mins by multilabel counter plate reader method; set-up: species or system Human immunodeficiency virus 1
[10] = system: Human immunodeficiency virus 1; assay: Antiviral activity against wild type HIV-1 IIIB infected in human MT2 cells assessed as protection against virus-induced cytopathicity incubated for 5 days by MTT assay; type: functional, organism-based; details: Human immunodeficiency virus 1, IIIB, MT2, 120 h
[11] = biological target: T1, Human immunodeficiency virus type 1 reverse transcriptase; assay: Inhibition of N-terminal 6-his-tagged HIV-1 reverse transcriptase RNase H (427 to 560 residues) transformed in Escherichia coli […] (DE3) at pH 7.4 incubated for 4 hrs
[12] = biological target: T1, Human immunodeficiency virus type 1 reverse transcriptase; assay: Inhibition of N-terminal 6-his-tagged HIV-1 reverse transcriptase RNase H (427 to 560 residues) transformed in Escherichia coli […] (DE3) at pH 8.0 incubated for 4 hrs
[13] = biological target: T1, Human immunodeficiency virus type 1 reverse transcriptase; assay: Inhibition of recombinant HIV-1 reverse transcriptase […] RNase H expressed in Escherichia coli M15 using 5-GTTTTCTTTTCCCCCCTGAC-3 Fluorescein/5CAAAAGAAAAGGGGGGACUG-3-Dabcyl RNA/DNA template-primer as substrate incubated for 1 hr by multilabel counter plate reader method
[14] = biological target: T2, Human immunodeficiency virus type 1 integrase; assay: Inhibition of recombinant HIV-1 His-tagged LEDGF-dependent integrase preincubated for 1 hr followed by compound addition and measured after 90 mins by HTRF method
[15] = system: Human immunodeficiency virus 1; assay: Antiviral activity against HIV-1 infected in human MT4 cells assessed as inhibition of virus-induced cytopathic effect measured after 5 days by spectrophotometric MTT assay; type: functional, organism-based; details: Human immunodeficiency virus 1, MT4, 120 h
[16] = biological target: T1, Human immunodeficiency virus type 1 reverse transcriptase; assay: Inhibition of HIV-1 reverse transcriptase associated RNase H using 5-GTTTTCTTTTCCCCCCTGAC-3 Fluorescein/5CAAAAGAAAAGGGGGGACUG-3-Dabcyl as substrate incubated for 1 hr
MT4 = assay: Cytotoxicity against human MT4 cells; type: functional
[17] = system: Human immunodeficiency virus 1; assay: Antiviral activity against HIV-1 IIIB infected in human TZM-bl cells assessed as reduction in virus-induced cytopathic effect incubated for 5 days by MTT assay; type: functional, organism-based; details: Human immunodeficiency virus 1, IIIB, 120 h
[18] = Cytotoxicity against human TZM-bl cells assessed as reduction in cell viability incubated for 5 days by MTT assay; type: toxicity, cell-based; details: time 5 day
[19] = biological target: T1, Human immunodeficiency virus type 1 reverse transcriptase; assay: Inhibition of HIV-1 reverse transcriptase RNase H activity expressed in Escherichia coli M15 using 5-GTTTTCTTTTCCCCCCTGAC-3 Fluorescein/5CAAAAGAAAAGGGGGGACUG-3-Dabcyl RNA/DNA template-primer as substrate incubated for 1 hr by multilabel counter plate reader method
in vitro = details: human, TZM-bl cells
Description: Cytotoxicity against human TZM-bl cells assessed as reduction in cell viability at 20 uM incubated for 3 days by XTT assay

- IC50 [1]: 0.65 µM
- IC50 [2]: 2.6 µM
SMILES: O=C1Cc2ccc(-c3ccco3)cc2C(=O)N1O

- IC50 [3]: 0.6 µM
SMILES: C=C(C)[C@@H]1CCc2c(c(C)cc(O)c(=O)c2O)C1

- IC50 [3]: 0.13 µM
SMILES: COC(=O)c1c(C)cc(O)c(=O)c(O)c1Br

SMILES: CCOC(=O)C(=O)CC(=O)/C=C/c1cccn1Cc1ccc(F)cc1
- EC50 [4]: 14 µM

- IC50 [5]: 5 µM
- IC50 [6]: 6.7 µM
SMILES: Cc1c(O)c([N+](=O)[O-])cc2cc(C(=O)Nc3ccc(O)c(C(=O)O)c3)c(=O)oc12

- IC50 [6]: 6 µM
SMILES: COC(=O)c1cc(NC(=O)c2cc3cc([N+](=O)[O-])c(O)c(O)c3oc2=O)ccc1O

SMILES: Nc1ccc(S(=O)(=O)N2CCN(C(=O)c3cc(O)c(O)c(O)c3)CC2)cc1
- CC50 [7]: > 19.9 µM

- IC50 [8]: 7 µM
- IC50 [9]: 17 µM
SMILES: Nc1nn(C(=O)c2ccccc2)c(N)c1C(=S)Nc1ccc(Cl)cc1
- IC50 [10]: 25 µM

- IC50 [3]: 10 µM
- IC50 [8]: 9.5 µM
SMILES: Cn1cc(-c2ccc(-c3ccccc3)cc2)s/c1=N/N=C1\C(=O)Nc2ccc(Cl)cc21

- IC50 [11]: 4.8 µM
- IC50 [12]: 1.1 µM
SMILES: O=C(O)Cc1cc(=O)oc2c(O)c(O)ccc12

- IC50 [13]: 1.3 µM
- IC50 [9]: 9.8 µM
SMILES: N#Cc1ccc(-c2c[nH]/c(=N\N=C3/C(=O)Nc4ccccc43)s2)cc1

- IC50 [14]: 16 µM
- IC50 [16]: 1.7 µM
SMILES: O=C(N/N=C/c1ccc(O)cc1O)c1cc(O)c(O)c(O)c1
- EC50 [15]: 17 µM
- CC50 (MT4): 61 µM

- IC50 [6]: 16.1 µM
- IC50 [19]: 14 µM
SMILES: COc1cc(OC)cc(OC(=O)c2ccc(C(F)(F)F)nc2Nc2cc(Cl)ccc2C)c1
- EC50 [17]: 5 µM
- CC50 at 120 h [18]: > 50 µM

SMILES: CC1=C[C@H](c2c(O)ccc([C@@H]3CC(=O)c4c(O)cc(O)cc4O3)c2O)[C@@H](C(=O)c2ccc(O)cc2O)[C@H](c2ccc(O)cc2O)C1 [KUWANON L]
- CC50 at 72 h (in vitro): > 20 µM
